Data taken from US20080009418A1, “Selective Inhibitors” (Alchemia LTD., priority 2004, published 2008).

Experiments:
Conditions in all cases: compound at 10 μM
[1] = target: T1, Human μ-opioid (MOP) (Homo sapiens, UniProt P35372); assay: Radioligand binding, human μ-opioid (MOP) membranes, FlashPlate, [3H]-Naloxone
T1 construct: purchased Perkin Elmer Biosignal
In short: (§1)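 Cloned human receptor membranes were coated onto FlashPlate wells and incubated with radioligand and compound (added from a 0.5 mM DMSO daughter plate) for 1 hour at room temperature in the dark. Scintillation counting gave percent inhibition, with DMSO defining total and reference ligand defining non-specific binding.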

[2] = target: T2, Mouse urotensin (mUR2) (Mus musculus, UniProt Q8VIH9); assay: Radioligand binding, mouse urotensin mUR2 membranes, FlashPlate, [125I]-Urotensin II
T2 construct: purchased Perkin Elmer Biosignal
T2 sequence (Q8VIH9 1-385): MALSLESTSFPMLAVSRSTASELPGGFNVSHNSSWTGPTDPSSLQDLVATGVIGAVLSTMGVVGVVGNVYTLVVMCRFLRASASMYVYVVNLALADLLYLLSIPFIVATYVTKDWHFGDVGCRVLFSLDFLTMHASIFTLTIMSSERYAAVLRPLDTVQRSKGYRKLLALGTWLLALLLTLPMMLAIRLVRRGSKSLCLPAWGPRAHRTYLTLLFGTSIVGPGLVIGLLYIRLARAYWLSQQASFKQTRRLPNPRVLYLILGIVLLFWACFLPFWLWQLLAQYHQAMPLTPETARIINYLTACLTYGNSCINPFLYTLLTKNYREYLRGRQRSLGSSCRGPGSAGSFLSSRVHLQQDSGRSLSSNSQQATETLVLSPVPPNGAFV
In short: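 Cloned mouse urotensin (mUR2) receptor membranes from Perkin Elmer Biosignal were immobilized in FlashPlate microplates using a proprietary coating. Each well got 19.5 μl buffer, then 0.5 μl of DMSO, reference ligand, or compound. Adding 5 μl of [125I]-Urotensin II, diluted to 5× final concentration in binding buffer, started binding. Plates were sealed with TopSeal-A and incubated 1 hour at room temperature in the dark. Wells were counted for 30 seconds each on a TopCount after a 60-second delay, and percentage inhibition was calculated.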

[3] = target: T3, Human κ-Opioid (KOP) (Homo sapiens, UniProt P41145); assay: Radioligand binding, human κ-opioid (KOP) membranes, filtration, [3H]-Diprenorphine
T3 construct: purchased Perkin Elmer Biosignal
In short: (§2)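 Percent inhibition of radioligand binding measured on recombinant human membranes: NK1 with [125I]-Substance P, KOP with [3H]-Diprenorphine. Incubation 1 h at room temperature, then harvest onto 0.3% PEI-soaked filters, cold Tris-HCl pH 7.4 washes and scintillation counting; non-specific binding from reference ligand wells.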

[4] = target: T4, Human Melanocortin (MC4) (Homo sapiens, UniProt P32245); assay: Radioligand binding, human melanocortin MC4 membranes, FlashPlate, [125I]-NDP-αMSH
T4 construct: purchased Perkin Elmer Biosignal
In short: as §1

[5] = target: T5, Human neuropeptide Y (NPY-Y1) (Homo sapiens, UniProt P25929); assay: Radioligand binding, human neuropeptide Y NPY-Y1 membranes, FlashPlate, [125I]-PYY
T5 construct: purchased Perkin Elmer Biosignal
T5 sequence (P25929 1-384): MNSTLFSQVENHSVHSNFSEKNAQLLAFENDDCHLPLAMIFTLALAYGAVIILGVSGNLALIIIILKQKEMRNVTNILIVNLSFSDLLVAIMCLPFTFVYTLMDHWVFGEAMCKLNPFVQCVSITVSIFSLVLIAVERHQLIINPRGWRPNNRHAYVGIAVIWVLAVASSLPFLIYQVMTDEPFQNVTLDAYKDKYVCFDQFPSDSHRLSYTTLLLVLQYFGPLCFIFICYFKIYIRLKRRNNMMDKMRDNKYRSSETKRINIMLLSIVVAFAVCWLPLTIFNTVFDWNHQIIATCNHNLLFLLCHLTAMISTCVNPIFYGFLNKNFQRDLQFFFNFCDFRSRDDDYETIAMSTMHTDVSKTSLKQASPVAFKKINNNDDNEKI
In short: as §1

[6] = target: T6, Human melanocortin (MC5) (Homo sapiens, UniProt P33032); assay: Radioligand binding, human melanocortin MC5 membranes, FlashPlate, [125I]-NDP-αMSH
T6 construct: purchased Perkin Elmer Biosignal
In short: as §1

[7] = target: T7, Human Melanocortin (MC3) (Homo sapiens, UniProt P41968); assay: Radioligand binding, human melanocortin MC3 membranes, FlashPlate, [125I]-NDP-αMSH
T7 construct: purchased Perkin Elmer Biosignal
In short: as §1

[8] = target: T8, Human opioid (ORL1) (Homo sapiens, UniProt P41146); assay: Radioligand binding, human opioid ORL1 membranes, FlashPlate, [125I]-Nociceptin
T8 construct: purchased Perkin Elmer Biosignal
In short: as §1

[9] = target: T9, Human δ-opioid (DOP) (Homo sapiens, UniProt P41143); assay: Radioligand binding, human δ-opioid (DOP) membranes, FlashPlate, [3H]-Bremazocine
T9 construct: purchased Perkin Elmer Biosignal
In short: as §1

[10] = target: T10, Human melanin-concentrating hormone (MCH1) (Homo sapiens, UniProt Q99705); assay: Radioligand binding, human melanin-concentrating hormone MCH1 membranes, FlashPlate, [125I]-S36057
T10 construct: purchased Perkin Elmer Biosignal
In short: as §1

[11] = target: T11, Human neurokinin (NK1) (Homo sapiens, UniProt P25103); assay: Radioligand binding, human neurokinin NK1 membranes, filtration, [125I]-Substance P
T11 construct: purchased Perkin Elmer Biosignal
In short: as §2

T10 sequence (Q99705 whole entry): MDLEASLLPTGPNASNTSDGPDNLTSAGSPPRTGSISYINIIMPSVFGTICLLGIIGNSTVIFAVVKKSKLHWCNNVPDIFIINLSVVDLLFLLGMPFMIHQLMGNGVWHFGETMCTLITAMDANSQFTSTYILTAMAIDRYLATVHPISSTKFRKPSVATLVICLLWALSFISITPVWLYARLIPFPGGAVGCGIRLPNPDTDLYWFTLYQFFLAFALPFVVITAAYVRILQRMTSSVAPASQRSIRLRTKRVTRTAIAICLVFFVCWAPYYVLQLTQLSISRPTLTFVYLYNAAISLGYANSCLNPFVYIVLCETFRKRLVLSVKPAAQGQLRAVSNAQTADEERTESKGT
T11 sequence (P25103 whole entry): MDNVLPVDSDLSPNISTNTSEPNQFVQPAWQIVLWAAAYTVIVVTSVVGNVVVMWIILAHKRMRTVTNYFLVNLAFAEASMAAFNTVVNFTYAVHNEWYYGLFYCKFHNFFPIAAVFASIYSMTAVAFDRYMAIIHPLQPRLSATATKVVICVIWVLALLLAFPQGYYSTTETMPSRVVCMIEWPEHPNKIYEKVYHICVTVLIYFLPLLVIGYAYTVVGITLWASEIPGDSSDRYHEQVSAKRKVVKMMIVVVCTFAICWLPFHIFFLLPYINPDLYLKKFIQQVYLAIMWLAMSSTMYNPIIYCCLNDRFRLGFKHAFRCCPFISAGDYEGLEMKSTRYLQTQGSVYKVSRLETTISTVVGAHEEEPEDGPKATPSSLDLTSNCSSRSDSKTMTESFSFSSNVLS
T8 sequence (P41146 whole entry): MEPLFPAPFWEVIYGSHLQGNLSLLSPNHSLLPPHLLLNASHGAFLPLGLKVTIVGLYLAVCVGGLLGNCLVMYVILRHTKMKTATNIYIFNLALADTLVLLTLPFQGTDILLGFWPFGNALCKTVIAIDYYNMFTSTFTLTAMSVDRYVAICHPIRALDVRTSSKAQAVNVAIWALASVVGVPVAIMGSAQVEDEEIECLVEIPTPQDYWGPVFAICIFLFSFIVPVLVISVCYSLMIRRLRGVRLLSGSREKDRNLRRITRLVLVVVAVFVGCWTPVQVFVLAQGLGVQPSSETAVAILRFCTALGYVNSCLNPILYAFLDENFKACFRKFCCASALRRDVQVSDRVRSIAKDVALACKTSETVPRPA
T4 sequence (P32245 whole entry): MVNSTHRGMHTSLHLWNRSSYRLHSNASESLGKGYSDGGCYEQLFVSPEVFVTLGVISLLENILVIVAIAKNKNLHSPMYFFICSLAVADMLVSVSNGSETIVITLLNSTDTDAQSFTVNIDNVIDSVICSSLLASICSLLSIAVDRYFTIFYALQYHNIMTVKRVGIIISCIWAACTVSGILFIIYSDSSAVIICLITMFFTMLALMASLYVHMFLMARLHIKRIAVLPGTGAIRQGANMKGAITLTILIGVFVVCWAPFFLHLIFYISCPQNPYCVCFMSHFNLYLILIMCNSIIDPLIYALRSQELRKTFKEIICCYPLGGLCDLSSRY
T3 sequence (P41145 whole entry): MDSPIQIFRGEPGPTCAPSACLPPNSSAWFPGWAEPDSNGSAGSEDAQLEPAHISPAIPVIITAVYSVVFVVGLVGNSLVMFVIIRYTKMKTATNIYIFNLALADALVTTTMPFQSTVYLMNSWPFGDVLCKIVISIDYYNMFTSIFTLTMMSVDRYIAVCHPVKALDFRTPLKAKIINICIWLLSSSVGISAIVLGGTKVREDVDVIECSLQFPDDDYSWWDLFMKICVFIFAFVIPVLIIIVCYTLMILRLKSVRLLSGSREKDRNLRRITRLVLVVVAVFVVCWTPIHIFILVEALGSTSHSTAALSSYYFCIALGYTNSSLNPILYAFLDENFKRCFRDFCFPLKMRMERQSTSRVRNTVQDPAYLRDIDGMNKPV
T7 sequence (P41968 whole entry): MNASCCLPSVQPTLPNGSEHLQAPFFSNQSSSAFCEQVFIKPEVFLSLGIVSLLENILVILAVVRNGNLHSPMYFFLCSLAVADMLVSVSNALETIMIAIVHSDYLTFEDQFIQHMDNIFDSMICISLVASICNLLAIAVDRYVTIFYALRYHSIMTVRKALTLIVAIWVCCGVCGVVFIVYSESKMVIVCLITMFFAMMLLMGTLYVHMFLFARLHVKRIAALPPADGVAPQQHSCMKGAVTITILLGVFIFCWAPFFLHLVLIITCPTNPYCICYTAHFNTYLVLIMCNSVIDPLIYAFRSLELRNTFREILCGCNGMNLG
T9 sequence (P41143 whole entry): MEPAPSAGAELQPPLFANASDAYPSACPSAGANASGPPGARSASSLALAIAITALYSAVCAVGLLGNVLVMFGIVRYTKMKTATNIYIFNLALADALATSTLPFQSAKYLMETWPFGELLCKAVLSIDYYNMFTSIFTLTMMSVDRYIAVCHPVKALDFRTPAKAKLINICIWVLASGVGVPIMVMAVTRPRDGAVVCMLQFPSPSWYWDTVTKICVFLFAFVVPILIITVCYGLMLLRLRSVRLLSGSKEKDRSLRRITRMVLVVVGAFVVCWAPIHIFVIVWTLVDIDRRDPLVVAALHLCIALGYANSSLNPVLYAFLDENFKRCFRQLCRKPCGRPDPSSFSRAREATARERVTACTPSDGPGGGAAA
T1 sequence (P35372 whole entry): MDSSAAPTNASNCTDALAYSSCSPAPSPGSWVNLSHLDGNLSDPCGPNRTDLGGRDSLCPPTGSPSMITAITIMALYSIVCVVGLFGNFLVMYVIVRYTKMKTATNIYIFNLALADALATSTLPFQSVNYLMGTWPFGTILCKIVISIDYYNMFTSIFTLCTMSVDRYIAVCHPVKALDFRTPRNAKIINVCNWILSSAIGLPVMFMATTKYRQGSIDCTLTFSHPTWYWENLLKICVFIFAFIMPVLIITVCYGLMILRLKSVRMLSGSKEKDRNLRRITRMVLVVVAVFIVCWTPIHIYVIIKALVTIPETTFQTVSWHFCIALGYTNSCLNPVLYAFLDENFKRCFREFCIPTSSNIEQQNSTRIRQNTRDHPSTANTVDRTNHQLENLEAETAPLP
T6 sequence (P33032 whole entry): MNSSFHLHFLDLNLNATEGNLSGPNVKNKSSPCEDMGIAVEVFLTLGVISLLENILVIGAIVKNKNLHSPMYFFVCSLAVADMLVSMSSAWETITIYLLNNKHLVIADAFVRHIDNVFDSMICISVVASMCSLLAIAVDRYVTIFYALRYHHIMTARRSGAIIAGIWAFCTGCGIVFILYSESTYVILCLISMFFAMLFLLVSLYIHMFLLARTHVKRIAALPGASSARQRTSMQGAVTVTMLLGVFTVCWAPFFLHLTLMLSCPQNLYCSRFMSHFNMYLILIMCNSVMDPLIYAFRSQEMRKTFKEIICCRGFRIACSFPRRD

Compound: CSC1OC(COCc2ccc3ccccc3c2)C(O)C(OCc2ccc3ccccc3c2)C1NC(=O)CN (stereo not shown) [compound 316]
- A7: inhibition of radioligand binding, human μ-opioid (MOP) ([1]; [3H]-Naloxone): − (“−” indicates less than 50% inhibition at 10 μM)
- A11: inhibition of radioligand binding, mouse urotensin (mUR2) ([2]; [125I]-Urotensin II): − (“−” indicates less than 50% inhibition at 10 μM)
- A2: inhibition of radioligand binding, human κ-opioid (KOP) ([3]; [3H]-Diprenorphine): − (“−” indicates less than 50% inhibition at 10 μM)
- A4: inhibition of radioligand binding, human melanocortin (MC4) ([4]; [125I]-NDP-αMSH): + (“+” indicates greater than 50% inhibition at 10 μM)
- A9: inhibition of radioligand binding, human neuropeptide Y (NPY-Y1) ([5]; [125I]-PYY): − (“−” indicates less than 50% inhibition at 10 μM)
- A5: inhibition of radioligand binding, human melanocortin (MC5) ([6]; [125I]-NDP-αMSH): − (“−” indicates less than 50% inhibition at 10 μM)
- A3: inhibition of radioligand binding, human melanocortin (MC3) ([7]; [125I]-NDP-αMSH): − (“−” indicates less than 50% inhibition at 10 μM)
- A10: inhibition of radioligand binding, human opioid (ORL1) ([8]; [125I]-Nociceptin): − (“−” indicates less than 50% inhibition at 10 μM)
- A1: inhibition of radioligand binding, human δ-opioid (DOP) ([9]; [3H]-Bremazocine): − (“−” indicates less than 50% inhibition at 10 μM)
- A6: inhibition of radioligand binding, human melanin-concentrating hormone (MCH1) ([10]; [125I]-S36057): − (“−” indicates less than 50% inhibition at 10 μM)
- A8: inhibition of radioligand binding, human neurokinin (NK1) ([11]; [125I]-Substance P): + (“+” indicates greater than 50% inhibition at 10 μM)

Compound: CO[C@H]1[C@H](O)[C@@H](COCc2ccc(Cl)cc2)OC(OCCc2ccccc2)[C@@H]1NC(=O)CCCNC(=N)N (stereo partly shown) [compound 122]
- A7 radioligand binding, percentage inhibition ([1]; [3H]-Naloxone): − (“−” indicates less than 50% inhibition at 10 μM)
- A11 radioligand binding, percentage inhibition ([2]; [125I]-Urotensin II): − (“−” indicates less than 50% inhibition at 10 μM)
- A2 radioligand binding, percentage inhibition ([3]; [3H]-Diprenorphine): − (“−” indicates less than 50% inhibition at 10 μM)
- A4 radioligand binding, percentage inhibition ([4]; [125I]-NDP-αMSH): + (“+” indicates greater than 50% inhibition at 10 μM)
- A9 radioligand binding, percentage inhibition ([5]; [125I]-PYY): − (“−” indicates less than 50% inhibition at 10 μM)
- A5 radioligand binding, percentage inhibition ([6]; [125I]-NDP-αMSH): + (“+” indicates greater than 50% inhibition at 10 μM)
- A3 radioligand binding, percentage inhibition ([7]; [125I]-NDP-αMSH): − (“−” indicates less than 50% inhibition at 10 μM)
- A10 radioligand binding, percentage inhibition ([8]; [125I]-Nociceptin): − (“−” indicates less than 50% inhibition at 10 μM)
- A1 radioligand binding, percentage inhibition ([9]; [3H]-Bremazocine): − (“−” indicates less than 50% inhibition at 10 μM)
- A6 radioligand binding, percentage inhibition ([10]; [125I]-S36057): − (“−” indicates less than 50% inhibition at 10 μM)
- A8 radioligand binding, percentage inhibition ([11]; [125I]-Substance P): + (“+” indicates greater than 50% inhibition at 10 μM)

Compound: COC[C@H]1OC(OCCc2ccccc2)[C@H](NC(=O)CCNC(=N)N)[C@@H](OCc2ccccc2)[C@@H]1O (stereo partly shown) [compound 46]
- A7 radioligand binding inhibition ([1]; human μ-opioid (MOP) membranes): − (“−” indicates less than 50% inhibition at 10 μM)
- A11 radioligand binding inhibition ([2]; mouse urotensin mUR2 membranes): − (“−” indicates less than 50% inhibition at 10 μM)
- A2 radioligand binding inhibition ([3]; human κ-opioid (KOP) membranes): − (“−” indicates less than 50% inhibition at 10 μM)
- A4 radioligand binding inhibition ([4]; human melanocortin MC4 membranes): − (“−” indicates less than 50% inhibition at 10 μM)
- A9 radioligand binding inhibition ([5]; human NPY-Y1 membranes): − (“−” indicates less than 50% inhibition at 10 μM)
- A5 radioligand binding inhibition ([6]; human melanocortin MC5 membranes): − (“−” indicates less than 50% inhibition at 10 μM)
- A3 radioligand binding inhibition ([7]; human melanocortin MC3 membranes): − (“−” indicates less than 50% inhibition at 10 μM)
- A10 radioligand binding inhibition ([8]; human ORL1 membranes): − (“−” indicates less than 50% inhibition at 10 μM)
- A1 radioligand binding inhibition ([9]; human δ-opioid (DOP) membranes): − (“−” indicates less than 50% inhibition at 10 μM)
- A6 radioligand binding inhibition ([10]; human MCH1 membranes): − (“−” indicates less than 50% inhibition at 10 μM)
- A8 radioligand binding inhibition ([11]; human neurokinin NK1 membranes): + (“+” indicates greater than 50% inhibition at 10 μM)

Compound: NCCCC(=O)NC1C(OCc2ccc3ccccc3c2)OC(COCc2ccc3ccccc3c2)C(O)C1OCc1ccc2ccccc2c1 (single isomer, unassigned) [compound 460]
- A7: inhibition of radioligand binding ([1]; [3H]-Naloxone, human MOP membranes, 10 µM): − (“−” indicates less than 50% inhibition at 10 μM)
- A11: inhibition of radioligand binding ([2]; [125I]-Urotensin II, mouse mUR2 membranes): − (“−” indicates less than 50% inhibition at 10 μM)
- A2: inhibition of radioligand binding ([3]; [3H]-Diprenorphine, human KOP membranes): − (“−” indicates less than 50% inhibition at 10 μM)
- A4: inhibition of radioligand binding ([4]; [125I]-NDP-αMSH, human MC4 membranes, 10 µM): − (“−” indicates less than 50% inhibition at 10 μM)
- A9: inhibition of radioligand binding ([5]; [125I]-PYY, human NPY-Y1 membranes): − (“−” indicates less than 50% inhibition at 10 μM)
- A5: inhibition of radioligand binding ([6]; [125I]-NDP-αMSH, human MC5 membranes): + (“+” indicates greater than 50% inhibition at 10 μM)
- A3: inhibition of radioligand binding ([7]; [125I]-NDP-αMSH, human MC3 membranes, 10 µM): − (“−” indicates less than 50% inhibition at 10 μM)
- A10: inhibition of radioligand binding ([8]; [125I]-Nociceptin, human ORL1 membranes, 10 µM): − (“−” indicates less than 50% inhibition at 10 μM)
- A1: inhibition of radioligand binding ([9]; [3H]-Bremazocine, human DOP membranes): − (“−” indicates less than 50% inhibition at 10 μM)
- A6: inhibition of radioligand binding ([10]; [125I]-S36057, human MCH1 membranes, 10 µM): − (“−” indicates less than 50% inhibition at 10 μM)
- A8: inhibition of radioligand binding ([11]; [125I]-Substance P, human NK1 membranes): + (“+” indicates greater than 50% inhibition at 10 μM)

Compound: CO[C@H]1[C@H](O)[C@@H](COCc2ccc(Cl)cc2)OC(OCc2ccc(Cl)cc2)[C@@H]1NC(=O)CCNC(=N)N (stereo partly shown) [compound 106]
- A7 radioligand binding, percentage inhibition ([1]; [3H]-Naloxone): − (“−” indicates less than 50% inhibition at 10 μM)
- A11 radioligand binding, percentage inhibition ([2]; [125I]-Urotensin II): − (“−” indicates less than 50% inhibition at 10 μM)
- A2 radioligand binding, percentage inhibition ([3]; [3H]-Diprenorphine): − (“−” indicates less than 50% inhibition at 10 μM)
- A4 radioligand binding, percentage inhibition ([4]; [125I]-NDP-αMSH): + (“+” indicates greater than 50% inhibition at 10 μM)
- A9 radioligand binding, percentage inhibition ([5]; [125I]-PYY): − (“−” indicates less than 50% inhibition at 10 μM)
- A5 radioligand binding, percentage inhibition ([6]; [125I]-NDP-αMSH): + (“+” indicates greater than 50% inhibition at 10 μM)
- A3 radioligand binding, percentage inhibition ([7]; [125I]-NDP-αMSH): + (“+” indicates greater than 50% inhibition at 10 μM)
- A10 radioligand binding, percentage inhibition ([8]; [125I]-Nociceptin): − (“−” indicates less than 50% inhibition at 10 μM)
- A1 radioligand binding, percentage inhibition ([9]; [3H]-Bremazocine): − (“−” indicates less than 50% inhibition at 10 μM)
- A6 radioligand binding, percentage inhibition ([10]; [125I]-S36057): − (“−” indicates less than 50% inhibition at 10 μM)
- A8 radioligand binding, percentage inhibition ([11]; [125I]-Substance P): + (“+” indicates greater than 50% inhibition at 10 μM)
